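Compound exposure: 48 hours, 5 concentrations, 96-well plates. TGI: concentration producing complete growth inhibition.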
Legend:
Experiment in all cases: NCI tumour cell line growth inhibition, 48 h
DU-145 prostate = system: DU-145 prostate
KM12 colon = system: KM12 colon
OVCAR-5 ovarian = system: OVCAR-5 ovarian
SR leukemia = system: SR leukemia
SNB-75 CNS = system: SNB-75 CNS
EKVX NSCLC = system: EKVX NSCLC
MOLT-4 leukemia = system: MOLT-4 leukemia
SW-620 colon = system: SW-620 colon
NCI-H460 lung = system: NCI-H460 lung
COLO 205 colon = system: COLO 205 colon
U251 CNS = system: U251 CNS
HOP-62 NSCLC = system: HOP-62 NSCLC
OVCAR-4 ovarian = system: OVCAR-4 ovarian
HS 578T breast = system: HS 578T breast
HOP-92 NSCLC = system: HOP-92 NSCLC
MDA-MB-435 = system: MDA-MB-435
HCT-15 colon = system: HCT-15 colon
ACHN renal = system: ACHN renal
IGROV1 ovarian = system: IGROV1 ovarian
HT29 colon = system: HT29 colon
UO-31 renal = system: UO-31 renal
MDA-N = system: MDA-N
SF-268 CNS = system: SF-268 CNS
SK-MEL-28 melanoma = system: SK-MEL-28 melanoma
T-47D breast = system: T-47D breast
SK-OV-3 ovarian = system: SK-OV-3 ovarian
NCI-H522 lung = system: NCI-H522 lung
HCT-116 colon = system: HCT-116 colon
UACC-62 melanoma = system: UACC-62 melanoma
PC-3 prostate = system: PC-3 prostate
SF-295 CNS = system: SF-295 CNS
786-0 renal = system: 786-0 renal
SNB-19 CNS = system: SNB-19 CNS
A549 NSCLC = system: A549 NSCLC
RPMI-8226 leukemia = system: RPMI-8226 leukemia
NCI-H226 lung = system: NCI-H226 lung
SK-MEL-2 melanoma = system: SK-MEL-2 melanoma
UACC-257 melanoma = system: UACC-257 melanoma
M14 melanoma = system: M14 melanoma
NCI-H23 lung = system: NCI-H23 lung
CAKI-1 renal = system: CAKI-1 renal
OVCAR-3 ovarian = system: OVCAR-3 ovarian
MCF7 breast = system: MCF7 breast
TK-10 renal = system: TK-10 renal
A498 renal = system: A498 renal
SK-MEL-5 melanoma = system: SK-MEL-5 melanoma
RXF 393 renal = system: RXF 393 renal
HL-60(TB) leukemia = system: HL-60(TB) leukemia
CCRF-CEM leukemia = system: CCRF-CEM leukemia
SF-539 CNS = system: SF-539 CNS
MDA-MB-231 breast = system: MDA-MB-231 breast
LOX IMVI melanoma = system: LOX IMVI melanoma
BT-549 breast = system: BT-549 breast
NCI/ADR-RES ovarian = system: NCI/ADR-RES ovarian
SN12C renal = system: SN12C renal
MALME-3M melanoma = system: MALME-3M melanoma
HCC-2998 colon = system: HCC-2998 colon
OVCAR-8 ovarian = system: OVCAR-8 ovarian
LXFL 529 NSCLC = system: LXFL 529 NSCLC
K-562 leukemia = system: K-562 leukemia
DLD-1 colon = system: DLD-1 colon
DMS 114 small cell lung = system: DMS 114 small cell lung
KM20L2 colon = system: KM20L2 colon
DMS 273 small cell lung = system: DMS 273 small cell lung
M19-MEL melanoma = system: M19-MEL melanoma
HOP-18 NSCLC = system: HOP-18 NSCLC

`CC(=O)NNc1nc(C)c(C(/C=C/c2ccc([N+](=O)[O-])cc2)=N/NC(N)=S)s1` showed a TGI (DU-145 prostate) of over 100 µM, a TGI (KM12 colon) of over 100 µM and a TGI (OVCAR-5 ovarian) of over 100 µM. It also gave a TGI (SR leukemia) of over 100 µM, a TGI (SNB-75 CNS) of over 100 µM and a TGI (EKVX NSCLC) of over 100 µM. It also gave a TGI (MOLT-4 leukemia) of over 100 µM, a TGI (SW-620 colon) of over 100 µM and a TGI (NCI-H460 lung) of over 100 µM. It also gave a TGI (COLO 205 colon) of over 100 µM, a TGI (U251 CNS) of over 100 µM and a TGI (HOP-62 NSCLC) of over 100 µM. For the same compound, the TGI (OVCAR-4 ovarian) was over 100 µM, the TGI (HS 578T breast) was over 100 µM and the TGI (HOP-92 NSCLC) was over 100 µM. It also gave a TGI (MDA-MB-435) of over 100 µM, a TGI (HCT-15 colon) of over 100 µM and a TGI (ACHN renal) of over 100 µM. The TGI (IGROV1 ovarian) was over 100 µM, the TGI (HT29 colon) was over 100 µM and the TGI (UO-31 renal) was over 100 µM. The TGI (MDA-N) was over 100 µM, the TGI (SF-268 CNS) was over 100 µM and the TGI (SK-MEL-28 melanoma) was over 100 µM. It also gave a TGI (T-47D breast) of over 100 µM, a TGI (SK-OV-3 ovarian) of over 100 µM and a TGI (NCI-H522 lung) of over 100 µM. It also gave a TGI (HCT-116 colon) of over 100 µM, a TGI (UACC-62 melanoma) of over 100 µM and a TGI (PC-3 prostate) of over 100 µM. For the same compound, the TGI (SF-295 CNS) was over 100 µM, the TGI (786-0 renal) was over 100 µM and the TGI (SNB-19 CNS) was over 100 µM. For the same compound, the TGI (A549 NSCLC) was over 100 µM, the TGI (RPMI-8226 leukemia) was over 100 µM and the TGI (NCI-H226 lung) was over 100 µM. For the same compound, the TGI (SK-MEL-2 melanoma) was over 100 µM, the TGI (UACC-257 melanoma) was over 100 µM and the TGI (M14 melanoma) was over 100 µM. It also gave a TGI (NCI-H23 lung) of over 100 µM, a TGI (CAKI-1 renal) of over 100 µM and a TGI (OVCAR-3 ovarian) of over 100 µM. For the same compound, the TGI (MCF7 breast) was over 100 µM, the TGI (TK-10 renal) was over 100 µM and the TGI (A498 renal) was over 100 µM. It also gave a TGI (SK-MEL-5 melanoma) of over 100 µM, a TGI (RXF 393 renal) of over 100 µM and a TGI (HL-60(TB) leukemia) of over 100 µM. It also gave a TGI (CCRF-CEM leukemia) of over 100 µM, a TGI (SF-539 CNS) of over 100 µM and a TGI (MDA-MB-231 breast) of over 100 µM. The TGI (LOX IMVI melanoma) was over 100 µM, the TGI (BT-549 breast) was over 100 µM and the TGI (NCI/ADR-RES ovarian) was over 100 µM. The TGI (SN12C renal) was over 100 µM, the TGI (MALME-3M melanoma) was over 100 µM and the TGI (HCC-2998 colon) was over 100 µM. For the same compound, the TGI (OVCAR-8 ovarian) was over 100 µM.

For `O=C(Nc1cccc(Cc2cccc(NC(=O)c3ccccc3)c2)c1)c1ccccc1`, the TGI (KM12 colon) was over 100 µM, the TGI (OVCAR-5 ovarian) was over 100 µM and the TGI (SR leukemia) was over 100 µM. For the same compound, the TGI (SNB-75 CNS) was 27.5 µM, the TGI (EKVX NSCLC) was over 100 µM and the TGI (MOLT-4 leukemia) was over 100 µM. For the same compound, the TGI (SW-620 colon) was over 100 µM, the TGI (NCI-H460 lung) was over 100 µM and the TGI (COLO 205 colon) was over 100 µM. For the same compound, the TGI (U251 CNS) was over 100 µM, the TGI (HOP-62 NSCLC) was 60.9 µM and the TGI (LXFL 529 NSCLC) was over 100 µM. It also gave a TGI (OVCAR-4 ovarian) of 39.8 µM, a TGI (K-562 leukemia) of over 100 µM and a TGI (HOP-92 NSCLC) of 44.3 µM. The TGI (HCT-15 colon) was over 100 µM, the TGI (ACHN renal) was over 100 µM and the TGI (IGROV1 ovarian) was over 100 µM. The TGI (HT29 colon) was over 100 µM, the TGI (UO-31 renal) was 66.3 µM and the TGI (SF-268 CNS) was over 100 µM. For the same compound, the TGI (SK-MEL-28 melanoma) was over 100 µM, the TGI (SK-OV-3 ovarian) was 62.5 µM and the TGI (NCI-H522 lung) was over 100 µM. The TGI (HCT-116 colon) was over 100 µM, the TGI (UACC-62 melanoma) was over 100 µM and the TGI (SF-295 CNS) was 70.2 µM. For the same compound, the TGI (786-0 renal) was over 100 µM, the TGI (DLD-1 colon) was over 100 µM and the TGI (SNB-19 CNS) was 94.6 µM. It also gave a TGI (A549 NSCLC) of over 100 µM, a TGI (NCI-H226 lung) of over 100 µM and a TGI (DMS 114 small cell lung) of over 100 µM. It also gave a TGI (SK-MEL-2 melanoma) of over 100 µM, a TGI (UACC-257 melanoma) of over 100 µM and a TGI (M14 melanoma) of over 100 µM. The TGI (NCI-H23 lung) was over 100 µM, the TGI (KM20L2 colon) was over 100 µM and the TGI (CAKI-1 renal) was 47.9 µM. It also gave a TGI (DMS 273 small cell lung) of over 100 µM, a TGI (M19-MEL melanoma) of over 100 µM and a TGI (OVCAR-3 ovarian) of over 100 µM. The TGI (TK-10 renal) was over 100 µM, the TGI (A498 renal) was over 100 µM and the TGI (SK-MEL-5 melanoma) was over 100 µM. The TGI (RXF 393 renal) was 46.6 µM, the TGI (HL-60(TB) leukemia) was over 100 µM and the TGI (CCRF-CEM leukemia) was over 100 µM. It also gave a TGI (SF-539 CNS) of 39.6 µM, a TGI (LOX IMVI melanoma) of over 100 µM and a TGI (SN12C renal) of over 100 µM. It also gave a TGI (MALME-3M melanoma) of 99.7 µM, a TGI (HCC-2998 colon) of over 100 µM and a TGI (OVCAR-8 ovarian) of over 100 µM. The TGI (HOP-18 NSCLC) was over 100 µM.

Source: PubChem BioAssay (NCI)
